This note sets out measurements from publication PMC12486854, “Targeting mycobacterial transpeptidases: evaluating the roles of Ldt and PBP inhibition in suppressing Mycobacterium smegmatis” (Antimicrobial Agents and Chemotherapy, 2025).

Where two headings read alike, the source gives them in different places. Where only a bound is given, the exact number is not on record here.

In experiment [1] the test system is Mycobacterium smegmatis (Msm). Details: broth microdilution MIC, resazurin read-out, 4 days at 37 C. The conditions noted are these: without clavulanic acid; 96 h.
The subject of experiment [2] is Mycobacterium smegmatis (Msm). In words: microbe, parasite or virus in culture. The conditions noted are these: without clavulanic acid, 96 h.
Experiment [3] addresses T1, Mtb PBP3 Δ1-122 (Mycobacterium tuberculosis, UniProt L0T911).
T1 construct: gene pbpB; N-terminally truncated (residues 1-122 removed), codon-optimised gene in pCold, E. coli BL21(DE3), His tag cleaved with 3C protease, calculated mass 60,148 Da, observed 60,152 Da
Briefly: biochemical.

For experiment [4], the target named is T1, Mtb PBP3 Δ1-122. In words: biochemical. The format is biochemical.
In experiment [5] the target is T2, LdtMt2 (Mycobacterium tuberculosis, UniProt I6Y9J2).
T2 construct: gene ldtB
Briefly: biochemical.

In experiment [6] the target is T2, LdtMt2. In words: biochemical. This is another data set of the same source.
The test system of experiment [7] is Mycobacterium smegmatis (Msm). The conditions noted are these: without clavulanic acid; 96 h.
Setting [8] is: 10 min pre-incubation, read-out: pIC50 LdtMt2 (converted).

T2 sequence (I6Y9J2 35-408): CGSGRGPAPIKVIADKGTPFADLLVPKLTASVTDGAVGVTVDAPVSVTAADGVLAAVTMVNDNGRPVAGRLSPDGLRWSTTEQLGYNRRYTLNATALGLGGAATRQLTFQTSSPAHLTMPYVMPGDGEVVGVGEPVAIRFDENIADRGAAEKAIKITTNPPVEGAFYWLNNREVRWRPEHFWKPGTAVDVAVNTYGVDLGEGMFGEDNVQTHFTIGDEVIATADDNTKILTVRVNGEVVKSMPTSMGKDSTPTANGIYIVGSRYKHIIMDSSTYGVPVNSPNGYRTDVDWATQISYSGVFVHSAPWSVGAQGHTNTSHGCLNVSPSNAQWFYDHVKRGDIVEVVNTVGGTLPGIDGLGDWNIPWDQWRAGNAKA
T1 sequence (L0T911 whole entry, looked up, stated change not applied, the tested form may be a part): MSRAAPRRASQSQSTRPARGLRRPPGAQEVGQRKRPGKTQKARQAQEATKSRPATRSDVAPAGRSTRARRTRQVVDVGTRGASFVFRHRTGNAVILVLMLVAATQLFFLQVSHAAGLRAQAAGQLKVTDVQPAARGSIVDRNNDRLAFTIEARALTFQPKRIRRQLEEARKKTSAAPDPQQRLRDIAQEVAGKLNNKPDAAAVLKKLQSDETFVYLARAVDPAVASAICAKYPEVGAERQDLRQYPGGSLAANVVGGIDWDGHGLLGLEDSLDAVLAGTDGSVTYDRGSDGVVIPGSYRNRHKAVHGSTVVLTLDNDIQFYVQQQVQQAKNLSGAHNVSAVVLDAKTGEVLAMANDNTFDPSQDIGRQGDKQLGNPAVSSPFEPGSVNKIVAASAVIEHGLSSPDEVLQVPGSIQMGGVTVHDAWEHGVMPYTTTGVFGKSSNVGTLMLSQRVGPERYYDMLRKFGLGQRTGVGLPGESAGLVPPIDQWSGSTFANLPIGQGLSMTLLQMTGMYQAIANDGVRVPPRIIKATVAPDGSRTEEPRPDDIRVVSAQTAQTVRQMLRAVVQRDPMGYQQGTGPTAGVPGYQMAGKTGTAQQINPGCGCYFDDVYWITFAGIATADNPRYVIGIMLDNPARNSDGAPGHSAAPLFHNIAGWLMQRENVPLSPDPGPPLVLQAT

As to `CC[C@@H](CO)NCCN[C@@H](CC)CO` [Ethambutol], in experiment [1], the “MIC Msm (µg/mL), no clavulanic acid” value amounted to 0.25 µg/mL. For `C[C@@H](O)[C@H]1C(=O)N2C(C(=O)O)=C([C@H]3CCCO3)S[C@H]12` [compound 1, faropenem], in experiment [2], the “MIC Msm (µg/mL), no clavulanic acid” value worked out at 16 µg/mL.

In turn, `C[C@@H](O)[C@H]1C(=O)N2C(C(=O)O)=C(SCCN=CN)C[C@H]12` [compound 2, imipenem] gave an IC50 on Mtb PBP3 Δ1-122 [3] of 0.501 µM. In addition, the “MIC Msm (µg/mL), no clavulanic acid” value in experiment [2] stood at 0.125 µg/mL. Take `CC(C)(O/N=C(\C(=O)N[C@@H]1C(=O)N2C(C(=O)[O-])=C(C[n+]3ccccc3)CS[C@H]12)c1csc(N)n1)C(=O)O` [compound 6, ceftazidime]: the IC50 against Mtb PBP3 Δ1-122 [4] is 3.16 µM. Moreover, the “MIC Msm (µg/mL), no clavulanic acid” value in experiment [2] is above 128 µg/mL. For the compound `CO/N=C(\C(=O)N[C@@H]1C(=O)N2C(C(=O)O)=C(CSc3nc(=O)c(=O)[nH]n3C)CS[C@H]12)c1csc(N)n1` [compound 7, ceftriaxone], the “MIC Msm (µg/mL), no clavulanic acid” value in experiment [2] is above 128 µg/mL. `CC1(C)S[C@@H]2[C@H](NC(=O)[C@H](N)c3ccccc3)C(=O)N2[C@H]1C(=O)O` [compound 11, ampicillin]: the “MIC Msm (µg/mL), no clavulanic acid” value in experiment [2] is above 128 µg/mL. For the compound `CC1(C)S[C@@H]2[C@H](NC(=O)[C@H](N)c3ccc(O)cc3)C(=O)N2[C@H]1C(=O)O` [compound 12, amoxicillin], in experiment [2], the “MIC Msm (µg/mL), no clavulanic acid” value is above 128 µg/mL. Turning to `CC1(C)S[C@@H]2[C@H](NC(=O)C(C(=O)O)c3ccccc3)C(=O)N2[C@H]1C(=O)O` (stereo partly drawn) [compound 15, carbenicillin], on Mtb PBP3 Δ1-122 [4], the IC50 was 3.98 µM. `C[C@H]1[C@H](NC(=O)/C(=N\OC(C)(C)C(=O)O)c2csc(N)n2)C(=O)N1S(=O)(=O)O` [compound 16, aztreonam] had an IC50 against Mtb PBP3 Δ1-122 [4] of 158 µM.

`O=C(O)[C@H]1/C(=C/CO)O[C@@H]2CC(=O)N21` [compound 17, clavulanic acid] registered an IC50 at Mtb PBP3 Δ1-122 [3] above 398 µM. Moreover, the MIC in experiment [2] (Mycolicibacterium smegmatis, read-out: MIC Msm (µg/mL), no clavulanic acid) was 128 µg/mL. Turning to `CCC(C)[C@H](NC(=O)OCc1ccccc1)C(=O)CCl` (stereo partly drawn) [compound 18, 18], the pIC50 (usually the IC50 on a negative log10 scale, so that one unit is a factor of ten) on Mtb PBP3 Δ1-122 [4] is below 3.4.

Regarding `CCC(C)[C@H](NC(=O)OCc1ccccc1)C(=O)CCl` (stereo partly drawn) [compound 18], the “MIC Msm (µg/mL), no clavulanic acid” value in experiment [2] is above 128 µg/mL. For `O=C1C=CC(=O)N1c1ccc(Oc2ccccc2)c(Cl)c1` [compound 19], the IC50 against Mtb PBP3 Δ1-122 [3] was 100 µM. For the same compound, in experiment [2], the “MIC Msm (µg/mL), no clavulanic acid” value came out at 64 µg/mL. Regarding `O=C(OCN1C(=O)C=CC1=O)c1ccccc1` [compound 20], in experiment [2], the “MIC Msm (µg/mL), no clavulanic acid” value stood at 64 µg/mL. Compound `O=c1c2cc(Cl)c(Cl)cc2sn1CCO` [compound 21, 21] had an IC50 against Mtb PBP3 Δ1-122 [3] of 79.4 µM. In experiment [2], the “MIC Msm (µg/mL), no clavulanic acid” value stood at 32 µg/mL.

`COc1ccc(CN2C(=O)C(=O)c3cc(Br)cc(C)c32)cc1OC` [compound 22, 22] showed an IC50 on Mtb PBP3 Δ1-122 [4] above 398 µM.

As to `COc1ccc(CN2C(=O)C(=O)c3cc(Br)cc(C)c32)cc1OC` [compound 22], the “MIC Msm (µg/mL), no clavulanic acid” value in experiment [2] is above 128 µg/mL. With `O=C1C(=O)N(Cc2cccc3ccccc23)c2ccc(Br)cc21` [compound 23, 23], the “MIC Msm (µg/mL), no clavulanic acid” value in experiment [2] was above 128 µg/mL. `NC(=O)OCC1=C(C(=O)O)N2C(=O)C(NC(=O)C(=CS(=O)(=O)CCc3ccc(O)c(O)c3)c3csc(N)n3)C2SC1` (stereo not drawn) [compound 24, 24] had a negative-log IC50 (pIC50) at Mtb PBP3 Δ1-122 [4] of 6.1 ± 0.089. Compound `N#Cn1c(-c2cc(F)cc(C(F)(F)F)c2)nc2ccccc21` [compound 25, 25] registered an IC50 at Mtb PBP3 Δ1-122 [4] above 398 µM. For the same compound, in experiment [2], the “MIC Msm (µg/mL), no clavulanic acid” value stood at 48 µg/mL. Regarding `N#Cn1c(-c2ccncc2)nc2ccc(C(=O)c3ccccc3)cc21` [compound 26], in experiment [2], the “MIC Msm (µg/mL), no clavulanic acid” value came out at 16 µg/mL. In turn, `O=C(C1OC1c1ccccc1)C1OC1c1ccccc1` (stereo not drawn) [compound 28, 28] displayed a pIC50 at Mtb PBP3 Δ1-122 [4] below 3.4. `COc1cccc(NC(=O)C(Cl)=C(Cl)S(=O)(=O)Cc2ccccc2Cl)n1` [compound 29, 29] showed a pIC50 against Mtb PBP3 Δ1-122 [4] below 3.4.

The compound `NC(=O)C=CC(=O)Nc1ccc(Cl)cc1` [compound 30, 30] registered an IC50 on Mtb PBP3 Δ1-122 [4] above 398 µM.

Regarding `NC(=O)C=CC(=O)Nc1ccc(Cl)cc1` [compound 30], the “MIC Msm (µg/mL), no clavulanic acid” value in experiment [2] is above 128 µg/mL.

With `O=[N+]([O-])c1ccc(S(=O)(=O)c2ccccc2)nc1` [compound 31, 31], the values for the IC50 on Mtb PBP3 Δ1-122 [4] and at LdtMt2 [5] (setting [8]) were above 398 µM and 5.01 µM, respectively. Besides, the “MIC Msm (µg/mL), no clavulanic acid” value in experiment [2] was 8 µg/mL. Further, the kinact/KI at LdtMt2 [6] (read-out: kinact/KI LdtMt2) was 52.6 M⁻¹ s⁻¹. As to `O=[N+]([O-])c1ccc(S(=O)(=O)c2ccccc2)cn1` [compound 32, 32], the “MIC Msm (µg/mL), no clavulanic acid” value in experiment [7] was found to be 4 µg/mL. At LdtMt2 [5] (setting [8]), the IC50 was 25.1 µM. On LdtMt2 [6] (read-out: kinact/KI LdtMt2), the kinact/KI was below 10 M⁻¹ s⁻¹. For the compound `Cc1ccc(S(=O)(=O)c2ccc([N+](=O)[O-])cn2)cc1` [compound 33, 33], the kinact/KI at LdtMt2 [6] (read-out: kinact/KI LdtMt2) was determined as 51.9 M⁻¹ s⁻¹. With `O=[N+]([O-])c1ccc(S(=O)(=O)c2ccc(Cl)cc2)nc1` [compound 34, 34], the kinact/KI on LdtMt2 [6] (read-out: kinact/KI LdtMt2) was 86.9 M⁻¹ s⁻¹.

Turning to `O=[N+]([O-])c1ccc(S(=O)(=O)c2ccc(Br)cc2)nc1` [compound 35, 35], the kinact/KI on LdtMt2 [6] (read-out: kinact/KI LdtMt2) is 272 M⁻¹ s⁻¹. Turning to `O=[N+]([O-])c1cccnc1S(=O)(=O)c1ccccc1` [compound 36, 36], the “MIC Msm (µg/mL), no clavulanic acid” value in experiment [7] came out at 16 µg/mL. The IC50 at LdtMt2 [5] (setting [8]) is 25.1 µM. Besides, the kinact/KI at LdtMt2 [6] (read-out: kinact/KI LdtMt2) is below 10 M⁻¹ s⁻¹. Regarding `O=S(=O)(c1ccccc1)c1ccccn1` [compound 37, 37], the “MIC Msm (µg/mL), no clavulanic acid” value in experiment [7] was above 128 µg/mL. Further, the IC50 on LdtMt2 [5] (setting [8]) is above 39.8 µM. Besides, on LdtMt2 [6] (read-out: kinact/KI LdtMt2), the kinact/KI is below 10 M⁻¹ s⁻¹. Regarding `O=S(=O)(c1ccccc1)c1cccnc1` [compound 38, 38], the “MIC Msm (µg/mL), no clavulanic acid” value in experiment [7] was above 128 µg/mL. The IC50 on LdtMt2 [5] (setting [8]) was above 39.8 µM. For the same compound, the kinact/KI on LdtMt2 [6] (read-out: kinact/KI LdtMt2) is below 10 M⁻¹ s⁻¹. With `O=S(=O)(c1ccccc1)c1ccncc1` [compound 39, 39], the “MIC Msm (µg/mL), no clavulanic acid” value in experiment [7] was above 128 µg/mL. Besides, the IC50 at LdtMt2 [5] (setting [8]) was above 39.8 µM. On LdtMt2 [6] (read-out: kinact/KI LdtMt2), the kinact/KI is below 10 M⁻¹ s⁻¹. For the compound `COc1ccc(S(=O)(=O)c2ccccc2)nc1` [compound 40, 40], the “MIC Msm (µg/mL), no clavulanic acid” value in experiment [7] was above 128 µg/mL. The IC50 at LdtMt2 [5] (setting [8]) was above 39.8 µM. The kinact/KI at LdtMt2 [6] (read-out: kinact/KI LdtMt2) is below 10 M⁻¹ s⁻¹.

For `N#Cc1ccc(S(=O)(=O)c2ccccc2)nc1` [compound 41, 41], in experiment [7], the “MIC Msm (µg/mL), no clavulanic acid” value was above 128 µg/mL. In addition, the IC50 on LdtMt2 [5] (setting [8]) is 25.1 µM. Also, on LdtMt2 [6] (read-out: kinact/KI LdtMt2), the kinact/KI was below 10 M⁻¹ s⁻¹. For `N#Cc1cccnc1S(=O)(=O)c1ccccc1` [compound 42, 42], in that order: above 128 µg/mL, above 39.8 µM and below 10 M⁻¹ s⁻¹. For `O=[N+]([O-])c1ccc(Cl)nc1` [compound 43, 43], in that order: 32 µg/mL, above 39.8 µM and below 10 M⁻¹ s⁻¹. Take `Clc1ccccn1` [compound 44, 44]: the “MIC Msm (µg/mL), no clavulanic acid” value in experiment [7] is above 128 µg/mL. Moreover, the IC50 on LdtMt2 [5] was above 39.8 µM. Besides, the kinact/KI on LdtMt2 [6] (read-out: kinact/KI LdtMt2 (M^-1 s^-1)) was below 10 M⁻¹ s⁻¹. In the case of `Nc1ncc(S(=O)(=O)c2ccc([N+](=O)[O-])cc2)s1` [compound 45, 45], in experiment [7], the “MIC Msm (µg/mL), no clavulanic acid” value is above 128 µg/mL. With `O=[N+]([O-])c1ccc(S(=O)(=O)c2ncc(C(F)(F)F)cc2Cl)cc1` [compound 46, 46], the “MIC Msm (µg/mL), no clavulanic acid” value in experiment [7] was above 128 µg/mL. Further, the IC50 at LdtMt2 [5] (setting [8]) is above 39.8 µM. In addition, the kinact/KI at LdtMt2 [6] (read-out: kinact/KI LdtMt2) was below 10 M⁻¹ s⁻¹. Turning to `C[C@@H](O)[C@H]1C(=O)N2C(C(=O)O)=C(S[C@@H]3CN[C@H](CNS(N)(=O)=O)C3)[C@H](C)[C@H]12` [doripenem], the “MIC Msm (µg/mL), no clavulanic acid” value in experiment [2] was 0.5 µg/mL. As for `C[C@@H](O)[C@H]1C(=O)N2C(C(=O)O)=C(S[C@@H]3CN[C@H](C(=O)Nc4cccc(C(=O)O)c4)C3)[C@H](C)[C@H]12` [ertapenem], the “MIC Msm (µg/mL), no clavulanic acid” value in experiment [2] came to 4 µg/mL. Same read-out and setting: under `C[C@@H](O)[C@H]1C(=O)N2C(C(=O)O)=C(S[C@@H]3CN[C@H](C(=O)N(C)C)C3)[C@H](C)[C@H]12` [meropenem] stands 2 µg/mL.
